Laboratory results published in ChEMBL document CHEMBL5614440, “Development of Novel Indole-Based Covalent Inhibitors of TEAD as Potential Antiliver Cancer Agents” (J Med Chem, 2024).
The source made the active and inactive calls. No cut-off for these calls is given here.

Columns and labels:
HEK293T = assay: Inhibition of TEAD (unknown origin) expressed in HEK293T cells transfected with 8xGTIIC-luciferase at 10 uM by dual luciferase reporter assay relative to control; type: cell-based; conditions: Homo sapiens
Huh-7 [1] = assay: Antiproliferative activity against human Huh-7 cells incubated for 3 days by CCK8 assay; type: functional, cell-based; conditions: Huh-7, 72 h
[2] = Antiproliferative activity against mouse AML12 cells at 10 uM incubated for 3 days by CCK8 assay; type: toxicity, cell-based; conditions: time 3 day
[3] = (§1) Inhibition of TEAD transcription in human Huh-7 cells transfected with 8xGTIIC-luciferase by dual luciferase reporter assay; type: cell-based
Mus musculus [4] = assay: Downregulation of CTGF mRNA expression in C57BL/6 mouse hepatoblastoma tumor at 25 mg/kg, ip administered twice a week for 9 weeks and measured after 2 days post last drug treatment by qRT-PCR analysis; type: functional, organism-based; conditions: time 65.0 day
[5] = AUCinfinity in Sprague-Dawley rat at 50 mg/kg, ip measured upto 24 hrs by LC-MS/MS analysis; type: ADME, organism-based; conditions: in vivo
NCI-H226 [6] = assay: Disruption of TAZ to TEAD protein-protein interaction in human NCI-H226 cells at 1 to 2.5 uM incubated for 24 hrs by Coimmunoprecipitation method; type: cell-based; conditions: dose 1-2.5 µM
Huh-7 [7] = assay: Inhibition of TEAD transcription in human Huh-7 cells transfected with 8xGTIIC-luciferase assessed as downregulation of CTGF protein expression by Western blotting analysis; type: cell-based; conditions: dose 1.25-15 µM
Hepatoblastoma cell line [8] = assay: Antitumor activity against C57BL/6 mouse hepatoblastoma assessed as reduction in tumor size at 25 mg/kg, ip administered twice a week for 9 weeks and measured after 2 days post last drug treatment; type: functional, organism-based; conditions: time 65.0 day
NCI-H2452 = assay: Antiproliferative activity against human NCI-H2452 cells incubated for 3 days by CCK8 assay; type: functional, cell-based; conditions: NCI-H2452, 72 h
Mus musculus [9] = assay: In vivo inhibition of TEAD transcription in NSG mouse xenografted with human Huh-7 cells assessed as decrease in CTGF expression at 50 mg/kg, ip administered every 3 days for 24 days by Western blotting analysis; type: functional, organism-based; conditions: time 24.0 day
Hs-578T = assay: Antiproliferative activity against human Hs-578T cells incubated for 3 days by CCK8 assay; type: functional, cell-based; conditions: 72 h
Mus musculus [10] = assay: Downregulation of Ccnd1 mRNA expression in C57BL/6 mouse hepatoblastoma tumor at 25 mg/kg, ip administered twice a week for 9 weeks and measured after 2 days post last drug treatment by qRT-PCR analysis; type: functional, organism-based; conditions: time 65.0 day
HepG2 [11] = assay: Inhibition of TEAD transcription in human HepG2 cells assessed as downregulation of CTGF mRNA expression incubated for 24 hrs by RT-PCR analysis; type: cell-based
Huh-7 [12] = assay: Induction of cell cycle arrest in human Huh-7 cells assessed as decrease in S phase cells at 5 to 10 uM incubated for 48 hrs by propidium iodide staining based flow cytometry; type: functional; conditions: dose 5-10 µM
NCI-H226 [13] = assay: Antiproliferative activity against human NCI-H226 cells incubated for 3 days by CCK8 assay; type: functional, cell-based; conditions: NCI-H226, 72 h
NCI-H226 [14] = assay: Disruption of YAP to TEAD protein-protein interaction in human NCI-H226 cells at 2.5 uM incubated for 24 hrs by Coimmunoprecipitation method; type: cell-based
[15] = Toxicity in NSG mouse assessed as change in body weight at 50 mg/kg, ip administered every 3 days for 24 days in presence of sorafenib and measured every 3 days; type: organism-based; conditions: in vivo, 576 h, time 24 day
HepG2 [16] = assay: Antiproliferative activity against human HepG2 cells incubated for 3 days by CCK8 assay; type: functional, cell-based; conditions: HepG2, 72 h
Mus musculus [17] = assay: Downregulation of Cyr61 mRNA expression in C57BL/6 mouse hepatoblastoma tumor at 25 mg/kg, ip administered twice a week for 9 weeks and measured after 2 days post last drug treatment by qRT-PCR analysis; type: functional, organism-based; conditions: time 65.0 day
Mus musculus [18] = assay: Downregulation of Gpc3 mRNA expression in C57BL/6 mouse hepatoblastoma tumor at 25 mg/kg, ip administered twice a week for 9 weeks and measured after 2 days post last drug treatment by qRT-PCR analysis; type: functional, organism-based; conditions: time 65.0 day
Huh-7 [19] = assay: Induction of cell cycle arrest in human Huh-7 cells assessed as increase in G1 phase cells at 5 to 10 uM incubated for 48 hrs by propidium iodide staining based flow cytometry (reference value: 36.4%); type: functional; conditions: dose 5-10 µM
Mus musculus [20] = assay: Downregulation of CTGF protein expression in C57BL/6 mouse hepatoblastoma tumor at 25 mg/kg, ip administered twice a week for 9 weeks and measured after 2 days post last drug treatment by Western blotting analysis; type: functional, organism-based; conditions: time 65.0 day
Huh-7 [21] = assay: as §1; type: cell-based
Huh-7 [22] = assay: Inhibition of TEAD transcription in human Huh-7 cells transfected with 8xGTIIC-luciferase assessed as downregulation of CYR61 mRNA expression incubated for 24 hrs by RT-PCR analysis; type: cell-based; conditions: dose 0.5-15 µM
HepG2 [23] = assay: Inhibition of TEAD transcription in human HepG2 cells assessed as downregulation of CYR61 mRNA expression incubated for 24 hrs by RT-PCR analysis; type: cell-based; conditions: dose 0.5-15 µM
HepG2 [24] = assay: Induction of cell cycle arrest in human HepG2 cells assessed as accumulation of G1 phase cells at 5 to 10 uM incubated for 48 hrs by propidium iodide staining based flow cytometry; type: functional; conditions: dose 5-10 µM
Mus musculus [25] = assay: Downregulation of Cyr61 protein expression in C57BL/6 mouse hepatoblastoma tumor at 25 mg/kg, ip administered twice a week for 9 weeks and measured after 2 days post last drug treatment by Western blotting analysis; type: functional, organism-based; conditions: time 65.0 day
NCI-H226 [26] = assay: Disruption of YAP to TEAD protein-protein interaction in human NCI-H226 cells at 1 uM incubated for 24 hrs by Coimmunoprecipitation method; type: cell-based
[27] = MRTinfinity in Sprague-Dawley rat at 50 mg/kg, ip measured upto 24 hrs by LC-MS/MS analysis; type: ADME, organism-based; conditions: in vivo
Huh-7 [28] = assay: Induction of apoptosis in human Huh-7 cells assessed as total apoptotic cells at 5 uM incubated for 48 hrs by Annexin V/PI staining based flow cytometry analysis; type: functional
Huh-7 [29] = assay: Antitumor activity against human Huh-7 cells xenografted in NSG mouse assessed as tumor growth inhibition at 50 mg/kg, ip administered every 3 days for 24 days in presence of sorafenib and measured every 3 days; type: functional; conditions: Huh-7, 576 h, time 24 day, read-out: TGI
Homo sapiens = species on record: Homo sapiens; assay: Covalent binding affinity to human TEAD2-YBD C380S mutant variant assessed as change in protein mass at 50 uM incubated for 15 hrs by mass spectrometry analysis
[30] = Half life in Sprague-Dawley rat at 50 mg/kg, ip measured upto 24 hrs by LC-MS/MS analysis; type: ADME, organism-based; conditions: in vivo
[31] = AUClast in Sprague-Dawley rat at 50 mg/kg, ip measured upto 24 hrs by LC-MS/MS analysis; type: ADME, organism-based; conditions: in vivo
Hepatoblastoma cell line [32] = assay: Antitumor activity against C57BL/6 mouse hepatoblastoma assessed as reduction in number of proliferating cells at 25 mg/kg, ip administered twice a week for 9 weeks and measured after 2 days post last drug treatment by Ki67 staining based immunohistochemistry assay; type: functional, organism-based; conditions: time 65.0 day
Mus musculus [33] = assay: In vivo inhibition of TEAD transcription in NSG mouse xenografted with human Huh-7 cells assessed as decrease in CYR61 expression at 50 mg/kg, ip administered every 3 days for 24 days by Western blotting analysis; type: functional, organism-based; conditions: time 24.0 day
HepG2 [34] = assay: Induction of apoptosis in human HepG2 cells assessed as total apoptotic cells at 10 uM incubated for 48 hrs by Annexin V/PI staining based flow cytometry analysis; type: functional
[35] = molecular target: Transcriptional enhancer factor TEF-4 (Homo sapiens) (UniProt Q15562); assay: Covalent binding affinity to human TEAD2-YBD (217 to 447 residues) assessed as change in protein mass at 50 uM incubated for 15 hrs by mass spectrometry analysis
Sequence of Transcriptional enhancer factor TEF-4 (Homo sapiens) (Q15562 whole entry, the tested form may be a part): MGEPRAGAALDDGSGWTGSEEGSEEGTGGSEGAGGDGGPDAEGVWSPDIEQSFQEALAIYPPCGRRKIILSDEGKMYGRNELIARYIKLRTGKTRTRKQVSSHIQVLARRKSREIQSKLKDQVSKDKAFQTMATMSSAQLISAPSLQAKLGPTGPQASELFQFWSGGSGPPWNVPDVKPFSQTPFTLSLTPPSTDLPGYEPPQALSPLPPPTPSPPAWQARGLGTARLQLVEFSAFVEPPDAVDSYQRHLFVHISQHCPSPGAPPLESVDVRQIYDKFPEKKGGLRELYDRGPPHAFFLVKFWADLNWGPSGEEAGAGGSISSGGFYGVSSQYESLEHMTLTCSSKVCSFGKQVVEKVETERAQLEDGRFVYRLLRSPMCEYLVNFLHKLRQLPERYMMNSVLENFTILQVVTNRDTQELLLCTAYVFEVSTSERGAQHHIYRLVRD

[36] = Cmax in Sprague-Dawley rat at 50 mg/kg, ip measured upto 24 hrs by LC-MS/MS analysis; type: ADME, organism-based; conditions: in vivo
[37] = Tmax in Sprague-Dawley rat at 50 mg/kg, ip measured upto 24 hrs by LC-MS/MS analysis; type: ADME, organism-based; conditions: in vivo
Huh-7 [38] = assay: Induction of cell cycle arrest in human Huh-7 cells assessed as decrease in G2 phase cells at 5 to 10 uM incubated for 48 hrs by propidium iodide staining based flow cytometry; type: functional; conditions: dose 5-10 µM
Huh-7 [39] = assay: Antitumor activity against human Huh-7 cells xenografted in NSG mouse assessed as tumor growth inhibition at 50 mg/kg, ip administered every 3 days for 24 days and measured every 3 days; type: functional; conditions: Huh-7, 576 h, time 24 day, read-out: TGI
Mus musculus [40] = assay: Downregulation of Afp mRNA expression in C57BL/6 mouse hepatoblastoma tumor at 25 mg/kg, ip administered twice a week for 9 weeks and measured after 2 days post last drug treatment by qRT-PCR analysis; type: functional, organism-based; conditions: time 65.0 day
Hepatoblastoma cell line [41] = assay: Antitumor activity against C57BL/6 mouse hepatoblastoma assessed as reduction in tumor occurrence at 25 mg/kg, ip administered twice a week for 9 weeks and measured after 2 days post last drug treatment; type: functional, organism-based; conditions: time 65.0 day
Huh-7 [42] = assay: Induction of apoptosis in human Huh-7 cells assessed as total apoptotic cells at 10 uM incubated for 48 hrs by Annexin V/PI staining based flow cytometry analysis; type: functional

C=CC(=O)NCc1c[nH]c2cc(Cl)c(OCc3ccc4ccccc4c3)cc12
inhibition (HEK293T): 1.5% | IC50 (Huh-7 [1]): 30.2 µM

N#C/C(=C\c1c[nH]c2cc(Cl)c(OCc3ccccc3)cc12)C(N)=O
IC50 (Huh-7 [1]): > 50 µM

O=C(CCl)c1c[nH]c2cc(Cl)c(OCc3ccc(C(F)(F)F)cc3)cc12
IC50 (Huh-7 [1]): 16.9 µM

Clc1cc2[nH]ccc2cc1OCc1ccccc1
inhibition at 72 h, 10 µM [2]: 20.3% | IC50 [3]: 5 µM | inhibition (HEK293T): 68.3% | IC50 (Huh-7 [1]): 32.5 µM

N#C/C(=C\c1c[nH]c2cc(Cl)c(OCC3CCC(F)(F)CC3)cc12)C(N)=O
inhibition (HEK293T): 60.1% | IC50 (Huh-7 [1]): 5.3 µM

O=C(CCl)c1c[nH]c2cc(Cl)c(OCc3ccc(C(F)(F)F)c(F)c3)cc12
IC50 (Huh-7 [1]): 1.8 µM

COc1cc2[nH]cc(C(=O)CCl)c2cc1OCc1ccccc1
inhibition (HEK293T): 53.7% | IC50 (Huh-7 [1]): 3.8 µM

C=CC(=O)NCc1c[nH]c2cc(Cl)c(OCc3ccccc3)cc12
IC50 (Huh-7 [1]): > 50 µM

C=CC(=O)NCc1c[nH]c2cc(Cl)c(OCc3cccc4ccccc34)cc12
inhibition (HEK293T): 10.6% | IC50 (Huh-7 [1]): 14.4 µM

N#C/C(=C\c1c[nH]c2cc(Cl)c(OCc3ccc4ccccc4c3)cc12)C(N)=O
inhibition (HEK293T): 47.3% | IC50 (Huh-7 [1]): 4.1 µM

N#C/C(=C\c1c[nH]c2cc(Cl)c(OCc3cccc(C(F)(F)F)c3)cc12)C(N)=O
inhibition (HEK293T): 59.7% | IC50 (Huh-7 [1]): 5.2 µM

O=C(CCl)c1c[nH]c2cc(Cl)c(OCc3cccc(C(F)(F)F)c3)cc12
Activity (Mus musculus [4]): Active | AUC(0-inf) [5]: 208 ng·h/mL | Activity (NCI-H226 [6]): inactive | inhibition (Huh-7 [7]): Dose-Dependent Effect | Activity (Hepatoblastoma cell line [8]): Active | IC50 (NCI-H2452): 11 µM | inhibition (Mus musculus [9]): Active | IC50 (Hs-578T): 2.6 µM | Activity (Mus musculus [10]): Active | inhibition (HepG2 [11]): Dose-Dependent Effect | Activity (Huh-7 [12]): Active | IC50 (NCI-H226 [13]): 0.4 µM | Activity (NCI-H226 [14]): 100% | Activity [15]: Non-Toxic | IC50 (HepG2 [16]): 2.4 µM | Activity (Mus musculus [17]): Active | Activity (Mus musculus [18]): Active | Activity (Huh-7 [19]): 58.2% | Activity (Mus musculus [20]): Active | inhibition (Huh-7 [21]): Dose-Dependent Effect | IC50 [3]: 0.629 µM | inhibition (Huh-7 [22]): Dose-Dependent Effect | inhibition (HepG2 [23]): Dose-Dependent Effect | Activity (HepG2 [24]): Active | Activity (Mus musculus [25]): Active | Activity (NCI-H226 [26]): Active | MRT inf [27]: 9.65 h | inhibition (HEK293T): 93.6% | Activity (Huh-7 [28]): 66.8% | inhibition in vivo at 50 mg/kg (Huh-7 [29]): 93% | Activity (Homo sapiens): inactive | half-life [30]: 6.49 h | AUC(0-t) at 24 h [31]: 175 ng·h/mL | Activity (Hepatoblastoma cell line [32]): Active | inhibition (Mus musculus [33]): Active | Activity (HepG2 [34]): 69% | IC50 (Huh-7 [1]): 0.9 µM | Activity [35]: Active | Cmax [36]: 28 ng/mL | Tmax [37]: 2.67 h | Activity (Huh-7 [38]): Active | inhibition in vivo at 50 mg/kg (Huh-7 [39]): 75% | Activity (Mus musculus [40]): Active | Activity (Hepatoblastoma cell line [41]): Active | Activity (Huh-7 [42]): 83.5%

O=C(CCl)NCc1c[nH]c2cc(Cl)c(OCc3ccc4ccccc4c3)cc12
inhibition (HEK293T): 67.4% | IC50 (Huh-7 [1]): 5.7 µM
